Experimental data taken from article PMC5513091, “A novel Alzheimer’s disease drug candidate targeting inflammation and fatty acid metabolism” (Alzheimer's Research & Therapy, 2017).

What was measured:
APPswe/PS1ΔE9 mice = test system: APPswe/PS1ΔE9 mice; design: method as in PMID 27149904; conditions: old APPswe/PS1ΔE9 mice fed from an early age, preventive strategy; cited from earlier work
rat hippocampal neurons = test: Aβ toxicity (extracellular); format: cell-based; conditions: Hippocampal neuron, read-out: Half-maximal effective concentration, Aβ toxicity (extracellular)
APPswe/PS1∆E9 mice = test: Fear-conditioning assay; format: in vivo; conditions: AD mice fed 200 ppm in chow for 3 months from 10 months of age; day 2
Description: The APPswe/PS1∆E9-transgenic mice were characterized previously. Line 85 mice carry two transgenes, the mouse/human chimeric APPswe, linked to Swedish familial AD and human PS1∆E9. At 10 months of age, female transgenic mice were fed a defined diet (Harlan Teklad; Envigo, Indianapolis, IN, USA) with and without CAD-31 (200 ppm, approximately 10 mg/kg/day). Treatment continued for 3 months, followed by behavior testing and tissue harvesting.
Fear conditioning to either a cue or a context represents a form of associative learning. The readout that is measured in contextual and cued fear conditioning is a freezing response that occurs following the pairing of an unconditioned stimulus, such as a foot shock, with a conditioned stimulus, such as a particular context or cue (tone). The mouse will freeze if it remembers and associates that environment with the aversive stimulus. The hippocampus and the amygdala are required for fear memory, where the hippocampus is involved in the formation and retrieval of context fear associations and the amygdala is involved in conditioning and recall of associations to contextual and discrete cues. […] On day 2, the time spent freezing is measured over the entire time in the chamber. […] The percentage of time spent freezing by each mouse is averaged per group, and then groups can be compared and p values calculated to determine statistical significance.

Structure (SMILES): Cc1ccc(N(/N=C/c2cccc(OC(F)(F)F)c2)C(=O)C(F)(F)F)c(C)c1 [CAD-31]
- division of NPCs in the subventricular zone (APPswe/PS1ΔE9 mice): stimulates the division of NPCs in the subventricular zone
- EC50 (rat hippocampal neurons): 0.027 µM
- time freezing in response to the context (APPswe/PS1∆E9 mice): more time freezing in response to the context
